These results are taken from patent US5874443A, “Isoquinoline derivatives and isoquinoline combinatorial libraries” (Trega Biosciences, Inc., priority 1996, dated 1999).

“Also recorded” adds a separate entry of the source.

The target in the first assay is T1, σ receptor (Rattus norvegicus, UniProt Q9R0C9).
T1 construct: The brains are thawed, the cerebella removed and the remaining tissue weighed; tissue Rockland (Gilbertsville, Pa.); host or cells: rat brain without cerebellum, crude particulate membranes
T1 sequence (Q9R0C9 whole entry): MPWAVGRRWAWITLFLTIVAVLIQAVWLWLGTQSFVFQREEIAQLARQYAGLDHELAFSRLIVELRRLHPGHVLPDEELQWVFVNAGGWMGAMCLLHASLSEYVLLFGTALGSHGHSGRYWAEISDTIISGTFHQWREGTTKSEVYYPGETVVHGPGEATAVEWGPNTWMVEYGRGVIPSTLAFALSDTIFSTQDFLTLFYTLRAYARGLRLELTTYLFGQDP
The assay is described as follows: σ receptor radio-receptor assay, inhibition of radiolabeled pentazocine binding. The conditions noted are these: Table IV; individual compounds, R1 varied.
On to `COc1ccc(Cc2ccc(C3C(C(=O)NCC45CC6CC(CC(C6)C4)C5)c4ccccc4C(=O)N3CCCCCCC(N)=O)o2)cc1` (centres unmarked) [Compound 1], for which the IC50 (as a rule, the point on the concentration scale where inhibition reaches its midpoint) amounted to 56 nM.

`COc1ccc(Cc2ccc(C3C(C(=O)NCC45CC6CC(CC(C6)C4)C5)c4ccccc4C(=O)N3C[C@H](N)C(N)=O)o2)cc1` (some centres unmarked) [Compound 3] registered an IC50 of 71 nM. This IC50 and that of the compound before are within 1.5-fold of each other. In turn, `COc1ccc(Cc2ccc(C3C(C(=O)NCC45CC6CC(CC(C6)C4)C5)c4ccccc4C(=O)N3C[C@H]3CC[C@H](C(N)=O)CC3)o2)cc1` (some centres unmarked) [Pool 2] gave an IC50 of 68 nM. For `COc1ccc(Cc2ccc(C3C(C(=O)NCC45CC6CC(CC(C6)C4)C5)c4ccccc4C(=O)N3CCOCCOCC(N)=O)o2)cc1` (centres unmarked) [Pool 5], the IC50 is 117 nM. The same measure, in the same setting: in the case of `COc1ccc(Cc2ccc(C3C(C(=O)NCC45CC6CC(CC(C6)C4)C5)c4ccccc4C(=O)N3CC(N)=O)o2)cc1` (centres unmarked) [Pool 6] it was 124 nM. In turn, `COc1ccc(Cc2ccc(C3C(C(=O)NCC45CC6CC(CC(C6)C4)C5)c4ccccc4C(=O)N3Cc3ccc(C(N)=O)cc3)o2)cc1` (centres unmarked) [Pool 7] yielded an IC50 of 130 nM. The IC50 values of the last two compounds are within 1.5-fold of each other.

With `COc1ccc(Cc2ccc(C3C(C(=O)NCC45CC6CC(CC(C6)C4)C5)c4ccccc4C(=O)N3CCCC[C@H](N)C(N)=O)o2)cc1` (some centres unmarked) [Pool 8], the IC50 was determined as 150 nM. The compound `COc1ccc(Cc2ccc(C3C(C(=O)NCC45CC6CC(CC(C6)C4)C5)c4ccccc4C(=O)N3CCCCC(N)=O)o2)cc1` (centres unmarked) [Pool 9] gave an IC50 of 231 nM. For `COc1ccc(Cc2ccc(C3C(C(=O)NCC45CC6CC(CC(C6)C4)C5)c4ccccc4C(=O)N3CCC(N)=O)o2)cc1` (centres unmarked) [Pool 10], the IC50 was 355 nM.

Still in this assay, the particulars now being: in words; Example 44.
With `COc1ccc(Cc2ccc(C3C(C(=O)NCC45CC6CC(CC(C6)C4)C5)c4ccccc4C(=O)N3CCCCCCC(N)=O)o2)cc1` (centres unmarked) [Compound 1], the “activity in the σ receptor assay (iterative approach)” value is given as “most active”.

Staying with this assay, now noted: in words; Example 51.
As to `COc1ccc(Cc2ccc(C3C(C(=O)NCC4CCCCC4)c4ccccc4C(=O)N3CCCCCCC(N)=O)o2)cc1` (centres unmarked), the “activity in the σ receptor screen (positional scan)” value is “most active; also recorded: virtually equal activity”.
